The test system of one test is Vaccinia virus. As to the kind of experiment: Antiviral activity on the replication of vaccinia virus at 400 ug/mL. The following applies: Orthopoxvirus vaccinia. The class given is functional, organism-based.
For the next test, the system named is Human alphaherpesvirus 2. As to the kind of experiment: Antiviral activity on the replication of HSV-2 at 400 ug/mL. The class given is functional, organism-based.
Another test is filed under the species Oryctolagus cuniculus. As to the kind of experiment: Inhibition of rabbit skeletal muscle protein kinase I. The class given is functional.
Test [1] concerns Vesicular stomatitis virus. The test can be described thus: Antiviral activity on the replication of vesicular stomatitis virus at 400 ug/mL. It is filed as functional, organism-based.
The test system of test [2] is L1210. As to the kind of experiment: Cytotoxic activity against murine leukemia L1210/deoxycytidine kinase deficient cell lines. It is filed as functional. Particulars: Mus musculus, read-out: ID50 (the source's name).
The subject of test [3] is L1210. The test can be described thus: Cytotoxic activity against murine leukemia L1210 cells. It is filed as functional. The following applies: Mus musculus, read-out: ID50 (the source's name).
In another test the test system is Human alphaherpesvirus 1. The test can be described thus: Antiviral activity on the replication of HSV-1 at 400 ug/mL. It is filed as functional, organism-based.
The test system of test [4] is L1210. The test can be described thus: Inhibition of L1210/0 cell proliferation. The following applies: Mus musculus, read-out: ID50 (the source's name). The class given is functional.
Test [5] has as its system L1210/ara C. The test can be described thus: Inhibition of L1210/arac cell proliferation at 200 ug/mL; IA means Inactive. It is filed as functional, cell-based. Particulars: Mus musculus.
For test [6], the system named is L1210/ara C. The test can be described thus: Inhibition of L1210/ara C cell proliferation. The class given is functional. The following applies: Mus musculus, read-out: ID50 (the source's name).

≈ marks a conversion by molar mass, not a printed value. Calls of active or inactive are those of the source. The calls are words filed in the database; no cut-off is given here.

Consider `CC(C)c1cn([C@@H]2O[C@@H]3COP(=O)(O)O[C@H]3[C@H]2O)c(=O)nc1N.N`, for which the outcome (in the test on Vaccinia virus; with Human alphaherpesvirus 2; in [1]; in the test with Human alphaherpesvirus 1) was inactive. Moreover, in the test listed under Oryctolagus cuniculus, the Ka came out at 0.8 µM. Also, the IC50 in the test with L1210 [2] and with L1210 [3] was over 200 µg/mL in each case.
Take `CC(C)c1cn(C2O[C@H](COP(=O)(O)O)[C@@H](O)[C@H]2O)c(=O)nc1N` (stereo partly specified): the outcome (in the test on Vaccinia virus; in the test with Human alphaherpesvirus 2; in test [1]; with Human alphaherpesvirus 1) was inactive.
`Nc1ccn([C@@H]2O[C@@H]3COP(=O)(O)O[C@H]3[C@H]2O)c(=O)n1`: the Ka in the test listed under Oryctolagus cuniculus was 0.03 µM. For the same compound, the IC50 in the test with L1210 [4] turned out to be 43 µg/mL (≈ 141 µM).
Turning to `CCCCc1cn(C2O[C@H](COP(=O)(O)O)[C@@H](O)[C@H]2O)c(=O)nc1N` (stereo partly specified), the result (with Vaccinia virus; with Human alphaherpesvirus 2; in test [1]; in the test on Human alphaherpesvirus 1) was inactive.
Consider `CCCCCCCCc1cnc(O)nc1N`, for which, in the test on L1210/ara C [5], the outcome was inactive. Moreover, the IC50 with L1210 [4] is 190 µg/mL (≈ 851 µM).
As to `CCc1cn([C@@H]2O[C@@H]3COP(=O)(O)O[C@H]3[C@H]2O)c(=O)nc1N.N`, the result (in the test on Vaccinia virus; in the test with Human alphaherpesvirus 2; in test [1]; with Human alphaherpesvirus 1) was inactive. In the test filed under Oryctolagus cuniculus, this compound registered a Ka of 0.8 µM. The IC50 in the test on L1210 [2] and in the test with L1210 [3] was over 200 µg/mL throughout.
In the case of `CCc1cn(C2O[C@H](COP(=O)(O)O)[C@@H](O)[C@H]2O)c(=O)nc1N` (stereo partly specified), the outcome (in the test on Vaccinia virus; in the test on Human alphaherpesvirus 2; in test [1]; in the test with Human alphaherpesvirus 1) was inactive.
As for `CC(C)c1cn([C@@H]2O[C@H](CO)[C@@H](O)[C@H]2O)c(=O)nc1N`, the outcome in the test with L1210/ara C [5] was inactive. The IC50 in the test on L1210/ara C [6] was determined as 39 µg/mL (≈ 137 µM); in the test on L1210 [4], 35 µg/mL (≈ 123 µM).
In the case of `CCCCCCCCc1cn([C@@H]2O[C@@H]3COP(=O)(O)O[C@H]3[C@H]2O)c(=O)nc1N.N`, the outcome (in the test with Vaccinia virus; in the test on Human alphaherpesvirus 2; in test [1]; with Human alphaherpesvirus 1) was inactive. The compound also gave a Ka in the test filed under Oryctolagus cuniculus of 0.8 µM. The IC50 in the test on L1210 [2] and in the test with L1210 [3] was over 200 µg/mL each time.
In the case of `Cc1cn([C@@H]2O[C@H](COP(=O)(O)O)[C@@H](O)[C@H]2O)c(=O)nc1N`, the outcome (in the test with L1210/ara C [5]; in the test on Vaccinia virus; in the test with Human alphaherpesvirus 2; in test [1]; in the test with Human alphaherpesvirus 1) was inactive. Further, the IC50 in the test on L1210 [4] came to 162 µg/mL (≈ 480 µM).
With `CCCCCCc1cn([C@@H]2O[C@@H]3COP(=O)(O)O[C@H]3[C@H]2O)c(=O)nc1N.N`, the outcome (in the test with Vaccinia virus; in the test with Human alphaherpesvirus 2; in [1]; with Human alphaherpesvirus 1) was inactive. The Ka in the test filed under Oryctolagus cuniculus worked out at 0.8 µM. The IC50 in the test with L1210 [2] and in the test on L1210 [3] was over 200 µg/mL in each case.
As for `Cc1cn([C@@H]2O[C@H](CO)[C@@H](O)[C@H]2O)c(=O)nc1N`, the outcome in the test with L1210/ara C [5] was inactive. Besides, the IC50 in the test on L1210 [4] was found to be 94 µg/mL (≈ 365 µM).
With `CCCc1cn(C2O[C@H](COP(=O)(O)O)[C@@H](O)[C@H]2O)c(=O)nc1N` (stereo partly specified), the result (in the test on Vaccinia virus; with Human alphaherpesvirus 2; in [1]; in the test on Human alphaherpesvirus 1) was inactive.
As to `CCCCCc1cn(C2O[C@H](COP(=O)(O)O)[C@@H](O)[C@H]2O)c(=O)nc1N` (stereo partly specified), the outcome (with Vaccinia virus; in the test on Human alphaherpesvirus 2; in test [1]; in the test on Human alphaherpesvirus 1) was inactive.
For `Nc1ccn([C@@H]2O[C@H](COP(=O)(O)O)[C@@H](O)[C@H]2O)c(=O)n1`, the result in the test with L1210/ara C [5] was inactive. The IC50 in the test on L1210 [4] amounted to 43 µg/mL (≈ 133 µM).
Turning to `CCCCCCCCc1cn(C2O[C@H](COP(=O)(O)O)[C@@H](O)[C@H]2O)c(=O)nc1N` (stereo partly specified), the result (in the test with Vaccinia virus; in the test on Human alphaherpesvirus 2; in test [1]; with Human alphaherpesvirus 1) was inactive.
Take `CCCCc1cn([C@@H]2O[C@@H]3COP(=O)(O)O[C@H]3[C@H]2O)c(=O)nc1N.N`: the result (with Vaccinia virus; in the test on Human alphaherpesvirus 2; in [1]; in the test on Human alphaherpesvirus 1) was inactive. The Ka in the test listed under Oryctolagus cuniculus was found to be 0.8 µM. In addition, the IC50 with L1210 [2] and in the test with L1210 [3] was over 200 µg/mL each time.
As for `CCCCCCc1cn(C2O[C@H](COP(=O)(O)O)[C@@H](O)[C@H]2O)c(=O)nc1N` (stereo partly specified), the result (in the test with Vaccinia virus; in the test with Human alphaherpesvirus 2; in test [1]; in the test with Human alphaherpesvirus 1) was inactive.
For the compound `Cc1cn([C@@H]2O[C@@H]3COP(=O)(O)O[C@H]3[C@H]2O)c(=O)nc1N.N`, the result (with Vaccinia virus; in the test with Human alphaherpesvirus 2; in test [1]; in the test with Human alphaherpesvirus 1) was inactive. In addition, the IC50 with L1210 [2] and in the test with L1210 [3] was over 200 µg/mL throughout.

The values are drawn from ChEMBL document CHEMBL1124664, “Synthesis and cytostatic and antiviral activities of 1-beta-D-ribofuranosyl-5-alkylcytosine (5-alkylcytidine) cyclic 3',5'-monophosphates” (1989).
